Laboratory results reported in patent publication US20240124503A1, “HETEROAROMATIC PHOSPHONIUM SALTS AND THEIR USE TREATING CANCER” (FLORATEK PHARMA S.A., priority 2021, published 2024).

Key:
SH-SY-5Y = assay: Cell viability assay, SH-SY-5Y; format: cell-based; conditions: Homo sapiens, SH-SY5Y; brain carcinoma cell line SH-SY-5Y
Description: (§1) Antitumor activity of the compounds and doxorubicin as a positive control was assessed by using the CellTiter-Blue Cell Viability Assay (Promega, #G8082) or CellTiter-Glow® Luminescent Cell Viability assay (Promega #G7572) according to the manufacturer's instructions. The compounds were tested at 5 or 6 concentrations in half-log increments (highest concentration 30 μM or 100 μM) in duplicate or triplicate well conditions.
(§2) Tumor cells were grown at 37° C. in a humidified atmosphere with 5% CO2 in RPMI 1640 or DMEM medium, supplemented with 10% (v/v) fetal calf serum and 50 μg/ml gentamicin for up to 20 passages, and were passaged once or twice weekly. Cells were harvested using TrypLE or PBS buffer containing 1 mM EDTA, and the percentage of viable cells was determined using a CASY Model TI cell counter (OMNI Life Science). Cells were harvested from exponential phase cultures, counted and plated in 96 well flat-bottom microtiter plates at a cell density depending on the cell line's growth rate (4,000-20,000 cells/well depending on the cell line's growth rate, up to 60,000 for hematological cancer cell lines) in RPMI 1640 or DMEM medium supplemented with 10% (v/v) fetal calf serum and 50 μg/ml gentamicin (140 μl/well). […] Viability of cells was quantified by the CellTiter-Blue® cell viability assay (Promega G8081) or CellTiter-Glow® Luminescent Cell Viability assay (Promega #G7572). […]

pancreatic cancer cell = assay: Cell viability, pancreatic cancer cells (panel statement); format: cell-based; conditions: text summary of Tables 18A and 18B, read-out: IC50, pancreatic cancer cell growth
Description: as §1, §2

TIE2 = target: T1, TIE2 (Homo sapiens, UniProt Q02763); assay: KINOMEscan competition binding, TIE2
T1 construct: purchased Eurofins (KINOMEscan); host or cells: E. coli BL21-derived host (T7 phage) or HEK-293
T1 sequence (Q02763 23-1124): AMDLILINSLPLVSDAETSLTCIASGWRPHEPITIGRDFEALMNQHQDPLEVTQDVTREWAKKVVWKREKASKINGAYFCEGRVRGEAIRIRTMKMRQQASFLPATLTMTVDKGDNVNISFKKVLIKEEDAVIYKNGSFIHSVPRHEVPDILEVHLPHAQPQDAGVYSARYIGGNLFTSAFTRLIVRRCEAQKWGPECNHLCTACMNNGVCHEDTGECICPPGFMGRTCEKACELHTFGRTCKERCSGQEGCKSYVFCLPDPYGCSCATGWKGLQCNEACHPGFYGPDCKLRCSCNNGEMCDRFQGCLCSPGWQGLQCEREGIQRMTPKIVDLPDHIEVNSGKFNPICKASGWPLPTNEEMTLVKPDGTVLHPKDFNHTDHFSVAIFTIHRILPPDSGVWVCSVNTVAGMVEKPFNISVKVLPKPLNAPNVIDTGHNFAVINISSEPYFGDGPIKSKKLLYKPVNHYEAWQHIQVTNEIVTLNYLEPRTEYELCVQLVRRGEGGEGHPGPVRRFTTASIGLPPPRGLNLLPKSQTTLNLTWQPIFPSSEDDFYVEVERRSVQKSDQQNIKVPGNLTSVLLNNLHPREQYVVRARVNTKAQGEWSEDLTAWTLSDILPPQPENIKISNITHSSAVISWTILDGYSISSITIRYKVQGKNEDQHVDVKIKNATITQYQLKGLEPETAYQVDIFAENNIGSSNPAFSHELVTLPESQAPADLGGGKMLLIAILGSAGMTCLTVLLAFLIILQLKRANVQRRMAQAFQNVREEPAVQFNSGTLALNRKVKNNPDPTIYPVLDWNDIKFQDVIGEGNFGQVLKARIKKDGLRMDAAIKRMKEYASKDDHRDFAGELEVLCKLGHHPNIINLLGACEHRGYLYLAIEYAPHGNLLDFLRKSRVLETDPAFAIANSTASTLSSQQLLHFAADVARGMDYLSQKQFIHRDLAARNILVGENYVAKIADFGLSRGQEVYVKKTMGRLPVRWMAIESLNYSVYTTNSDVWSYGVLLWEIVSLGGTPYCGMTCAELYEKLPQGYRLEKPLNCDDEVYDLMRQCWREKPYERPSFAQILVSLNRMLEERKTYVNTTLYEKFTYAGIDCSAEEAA
Description: Selected compounds were screened for kinase inhibition using the KINOMEscan™ assay (Eurofins) which is based on a competition binding assay that quantitatively measures the ability of a compound to compete with an immobilized, active-site directed ligand. The assay was performed by combining three components: DNA-tagged kinase; immobilized ligand; and the test compound. The ability of the test compound to compete with the immobilized ligand was measured via quantitative PCR of the DNA tag.
Kinase-tagged T7 phage strains were prepared in an E. coli host derived from the BL21 strain. E. coli were grown to log-phase and infected with T7 phage and incubated with shaking at 32° C. until lysis. The lysates were centrifuged and filtered to remove cell debris. The remaining kinases were produced in HEK-293 cells and subsequently tagged with DNA for qPCR detection. Streptavidin-coated magnetic beads were treated with biotinylated small molecule ligands for 30 minutes at room temperature to generate affinity resins for kinase assays. […] Kds were determined using an 11-point 3-fold compound dilution series with three DMSO control points. […] The kinase concentration in the eluates was measured by qPCR. […]
Binding constants (Kds) were calculated with a standard dose-response curve using the Hill equation: Response=Background+[Signal−Background/1+(Kd^Hill Slope/Dose^Hill Slope)] […]

IC50 (SH-SY-5Y): 2600 nM
IC50 (pancreatic cancer cell): < 20000 nM
Kd (TIE2): 40 nM
Compound: COc1c(O)ccc2c(=O)c(O)c(-c3ccc(CCCC[P+](c4ccccc4)(c4ccccc4)c4ccccc4)cc3)oc12 [SND190, (4-(4-(3,7-Dihydroxy-8-methoxy-4-oxo-4H1-chromen-2-yl)phenyl)butyl)triphenylphosphonium bromide]
